# Laboratory results: BigSolDB 2.1
compound,measurement,setting,value
Nc1ccc(S(=O)(=O)Nc2ncccn2)cc1,solubility (mole fraction),"in ethanol, 293.15 K",6.26e-06
same,solubility (mole fraction),"in ethanol, 298.15 K",7.74e-06
same,solubility (mole fraction),"in ethanol, 303.15 K",9.46e-06
same,solubility (mole fraction),"in ethanol, 308.15 K",1.17e-05
same,solubility (mole fraction),"in ethanol, 313.15 K",1.38e-05
same,solubility (mole fraction),"in water, 293.15 K",3.8e-07
same,solubility (mole fraction),"in water, 298.15 K",4.81e-07
same,solubility (mole fraction),"in water, 303.15 K",6.49e-07
same,solubility (mole fraction),"in water, 308.15 K",8.7e-07
same,solubility (mole fraction),"in water, 313.15 K",1.14e-06
